In the supplement of paper PMC10307832:

Assays:
Assay in all cases: relative viability (nuclei count vs DMSO), 5 days (fraction); higher = more cells survive
GW-2580 + Palbociclib = compound: COC1=CC=C(C=C1)COC2=C(C=C(C=C2)CC3=CN=C(N=C3N)N)OC [GW-2580] + CC(=O)c1c(C)c2cnc(Nc3ccc(N4CCNCC4)cn3)nc2n(C2CCCC2)c1=O [Palbociclib] (partner 0.5 µM)
Procedure, shortened: (§1)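 Dosing by pin tool came one day after lung cancer cell lines were seeded in 1536-well plates, using either one drug or a fixed anchor-drug dose plus five library-drug doses (not always all listed) in √10 steps. After 5 days, nuclei were counted on 4× images. Relative viability is treated-well nuclei count divided by vehicle-well nuclei count, and values are medians of duplicate plates.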

GW-2580 + Phenformin = compound: COC1=CC=C(C=C1)COC2=C(C=C(C=C2)CC3=CN=C(N=C3N)N)OC [GW-2580] + N=C(N)NC(=N)NCCc1ccccc1 [Phenformin] (partner 250 µM)
Procedure, shortened: as §1

Fedratinib + Lapatinib = compound: Cc1cnc(Nc2ccc(OCCN3CCCC3)cc2)nc1Nc1cccc(S(=O)(=O)NC(C)(C)C)c1 [Fedratinib] + CS(=O)(=O)CCNCc1ccc(-c2ccc3ncnc(Nc4ccc(OCc5cccc(F)c5)c(Cl)c4)c3c2)o1 [Lapatinib] (partner 2 µM)
Procedure, shortened: as §1

Fedratinib + Alpelisib = compound: Cc1cnc(Nc2ccc(OCCN3CCCC3)cc2)nc1Nc1cccc(S(=O)(=O)NC(C)(C)C)c1 [Fedratinib] + Cc1nc(NC(=O)N2CCC[C@H]2C(N)=O)sc1-c1ccnc(C(C)(C)C(F)(F)F)c1 [Alpelisib] (partner 2 µM)
Procedure, shortened: as §1

Fedratinib + Decitabine = compound: Cc1cnc(Nc2ccc(OCCN3CCCC3)cc2)nc1Nc1cccc(S(=O)(=O)NC(C)(C)C)c1 [Fedratinib] + Nc1ncn([C@H]2C[C@H](O)[C@@H](CO)O2)c(=O)n1 [Decitabine] (partner 2 µM)
Procedure, shortened: as §1

Fedratinib + Vorinostat = compound: Cc1cnc(Nc2ccc(OCCN3CCCC3)cc2)nc1Nc1cccc(S(=O)(=O)NC(C)(C)C)c1 [Fedratinib] + O=C(CCCCCCC(=O)Nc1ccccc1)NO [Vorinostat] (partner 1 µM)
Procedure, shortened: as §1

| Cell Line | relative viability (GW-2580 + Palbociclib; first compound 0.08 µM) | relative viability (GW-2580 + Palbociclib; first compound 0.8 µM) | relative viability (GW-2580 + Palbociclib; first compound 2.53 µM) | relative viability (GW-2580 + Palbociclib; first compound 8 µM) | relative viability (GW-2580 + Phenformin; first compound 0.08 µM) | relative viability (GW-2580 + Phenformin; first compound 0.8 µM) | relative viability (GW-2580 + Phenformin; first compound 2.53 µM) | relative viability (GW-2580 + Phenformin; first compound 8 µM) | relative viability (Fedratinib + Lapatinib; first compound 0.1 µM) | relative viability (Fedratinib + Lapatinib; first compound 0.3162 µM) | relative viability (Fedratinib + Lapatinib; first compound 1 µM) | relative viability (Fedratinib + Alpelisib; first compound 0.1 µM) | relative viability (Fedratinib + Alpelisib; first compound 0.3162 µM) | relative viability (Fedratinib + Alpelisib; first compound 1 µM) | relative viability (Fedratinib + Decitabine; first compound 0.1 µM) | relative viability (Fedratinib + Decitabine; first compound 0.3162 µM) | relative viability (Fedratinib + Decitabine; first compound 1 µM) | relative viability (Fedratinib + Vorinostat; first compound 0.1 µM) | relative viability (Fedratinib + Vorinostat; first compound 0.3162 µM) | relative viability (Fedratinib + Vorinostat; first compound 1 µM) |
| --- | --- | --- | --- | --- | --- | --- | --- | --- | --- | --- | --- | --- | --- | --- | --- | --- | --- | --- | --- | --- |
| COR-L23 | 0.264 | 0.328 | 0.302 | 0.288 | 0.458 | 0.53 | 0.478 | 0.463 | 1.04 | 0.999 | 1.07 | 0.752 | 0.74 | 0.778 | 0.4 | 0.416 | 0.177 | 0.407 | 0.487 | 0.392 |
| NCI-H2087 | 0.196 | 0.274 | 0.216 | 0.252 | 0.526 | 0.473 | 0.352 | 0.444 | 1.25 | 1.31 | 0.303 | 1.03 | 1.05 | 0.963 | 0.206 | 0.242 | 0.219 | 0.728 | 0.734 | 0.825 |
| LC-2-ad | 0.578 | 0.549 | 0.491 | 0.45 | 0.595 | 0.674 | 0.634 | 0.682 | 1.06 | 0.983 | 0.104 | 0.932 | 0.879 | 0.772 | 0.902 | 0.776 | 0.741 | 0.582 | 0.804 | 0.705 |
| NCI-H1915 | 0.608 | 0.735 | 0.597 | 0.492 | 0.392 | 0.368 | 0.362 | 0.38 | 0.891 | 0.985 | 0.662 | 1.03 | 1.04 | 0.943 | 0.266 | 0.258 | 0.247 | 0.539 | 0.507 | 0.459 |
| NCI-H1793 | 0.412 | 0.345 | 0.28 | 0.273 | 0.4 | 0.259 | 0.314 | 0.286 | 0.628 | 0.61 | 0.311 | 0.746 | 0.683 | 0.627 | 0.501 | 0.526 | 0.406 | 0.749 | 0.621 | 0.515 |
| NCI-H2023 | 0.398 | 0.477 | 0.368 | 0.31 | 0.466 | 0.423 | 0.336 | 0.382 | 0.897 | 0.75 | 0.083 | 0.578 | 0.629 | 0.56 | 0.21 | 0.23 | 0.117 | 0.826 | 0.626 | 0.547 |
| COR-L 105 | 0.434 | 0.398 | 0.413 | 0.39 | 0.529 | 0.478 | 0.508 | 0.491 | 0.297 | 0.379 | 0.336 | 1.04 | 1.06 | 0.793 | 0.669 | 0.611 | 0.511 | 0.825 | 0.904 | 0.676 |
| RERF-LC-KJ | 1.13 | 1.24 | 0.988 | 1.07 | 0.435 | 0.418 | 0.445 | 0.395 | 0.879 | 0.844 | 0.838 | 0.792 | 0.86 | 0.756 | 0.64 | 0.635 | 0.277 | 0.66 | 0.669 | 0.573 |
| LXF-289 | 0.616 | 0.64 | 0.599 | 0.602 | 0.514 | 0.521 | 0.489 | 0.506 | 0.894 | 0.883 | 0.737 | 1.06 | 0.997 | 1.05 | 0.36 | 0.338 | 0.378 | 0.765 | 0.748 | 0.775 |
| PC-14 | 0.653 | 0.614 | 0.607 | 0.473 | 0.358 | 0.82 | 0.494 | 0.615 | 0.261 | 0.351 | 0.249 | 0.915 | 0.961 | 0.916 | 0.193 | 0.23 | 0.094 | 0.761 | 0.83 | 0.727 |
| NCI-H650 | 0.314 | 0.373 | 0.28 | 0.317 | 0.43 | 0.474 | 0.392 | 0.481 |  | 1.07 | 0.347 |  | 1.03 | 0.865 | 0.349 | 0.372 | 0.34 | 0.381 | 0.42 | 0.332 |
| NCI-H1666 | 0.647 | 0.65 | 0.649 | 0.64 | 0.581 | 0.607 | 0.604 | 0.554 | 0.503 | 0.671 | 0.258 | 0.872 | 1.05 | 1.02 | 0.638 | 0.746 | 0.7 | 1.07 | 1.1 | 0.928 |
| NCI-H2085 | 0.507 | 0.467 | 0.462 | 0.438 | 0.756 | 0.739 | 0.682 | 0.769 | 0.709 | 0.766 | 0.538 | 0.977 | 0.963 | 0.922 | 0.53 | 0.563 | 0.518 | 0.77 | 0.825 | 0.787 |
| NCI-H1734 | 0.364 | 0.432 | 0.37 | 0.311 | 0.35 | 0.374 | 0.38 | 0.359 | 1.18 | 1.1 | 0.183 | 0.627 | 0.654 | 0.62 | 0.444 | 0.399 | 0.529 | 1.07 | 0.796 | 0.685 |
| NCI-H2126 | 0.352 | 0.365 | 0.335 | 0.356 | 0.52 | 0.535 | 0.543 | 0.526 | 0.761 | 0.772 | 0.689 | 0.745 | 0.719 | 0.786 | 0.532 | 0.596 | 0.605 | 0.732 | 0.786 | 0.708 |
| EMC-BAC-2 | 0.536 | 0.545 |  | 0.493 | 0.558 | 0.501 | 0.416 | 0.493 | 1 | 0.901 | 0.909 | 0.85 | 0.754 | 0.711 | 1.01 | 1.07 | 0.988 | 0.418 | 0.566 | 0.317 |
| NCI-H1993 | 0.744 | 0.748 | 0.563 | 0.647 | 0.573 | 0.461 | 0.486 | 0.518 | 0.725 | 0.82 | 0.608 | 0.612 | 0.755 | 0.65 | 0.473 | 0.725 | 0.704 | 0.819 | 0.872 | 0.864 |
| NCI-H520 | 0.228 | 0.206 | 0.228 | 0.208 | 0.79 | 0.59 | 0.592 | 0.587 | 0.86 | 0.717 | 0.18 | 0.912 | 0.845 | 0.805 | 0.557 | 0.454 | 0.532 | 0.657 | 0.654 | 0.634 |
| NCI-H647 | 0.384 | 0.398 | 0.41 | 0.317 | 0.605 | 0.623 | 0.401 | 0.661 | 1.22 | 1.12 | 0.173 | 1.13 | 1.09 | 0.809 | 0.581 | 0.327 | 0.372 | 0.61 | 0.782 | 0.385 |
| SK-LU-1 | 0.414 | 0.459 | 0.29 | 0.373 | 0.559 | 0.731 | 0.383 | 0.537 | 0.851 | 0.871 | 0.578 |  | 0.93 | 0.701 | 0.614 | 0.599 | 0.615 | 0.766 | 0.786 | 0.614 |
| NCI-H2009 | 0.193 | 0.179 | 0.212 | 0.248 | 0.509 | 0.45 | 0.409 | 0.423 | 0.915 | 1.02 | 0.171 | 1.21 | 1.2 | 1.1 | 0.368 | 0.406 | 0.356 | 0.639 | 0.696 | 0.695 |
| LOU-NH91 | 0.516 | 0.514 | 0.505 | 0.54 | 0.692 | 0.757 | 0.611 | 0.66 | 0.732 | 0.798 | 0.638 | 0.615 | 0.785 | 0.676 | 0.756 | 0.798 | 0.785 | 0.777 | 1.09 | 0.782 |
| NCI-H2405 | 0.512 | 0.546 | 0.463 | 0.49 | 0.401 | 0.393 | 0.308 | 0.333 | 0.91 | 1.07 | 0.753 | 0.626 | 0.824 | 0.698 | 0.729 | 0.725 | 0.663 | 0.946 | 0.982 | 0.814 |
| LCLC-97TM1 | 0.214 | 0.308 | 0.199 | 0.221 | 0.443 | 0.469 | 0.438 | 0.454 | 1.14 | 0.711 | 0.938 | 0.201 | 0.288 | 0.189 | 0.273 | 0.255 | 0.214 | 0.74 | 0.669 | 0.456 |
| NCI-H727 | 0.576 | 0.625 | 0.606 | 0.54 | 0.662 | 0.574 | 0.499 | 0.652 | 0.783 | 0.846 | 0.211 | 0.597 | 0.609 | 0.532 | 0.864 | 0.792 | 0.874 | 1.15 | 1.08 | 1.13 |
| H3255 | 0.308 | 0.3 | 0.317 | 0.279 | 0.277 | 0.848 | 0.702 | 0.359 | 0.216 | 0.231 | 0.218 | 0.458 | 0.715 | 0.652 | 0.607 | 0.685 | 0.507 | 0.84 | 0.876 | 0.696 |
| SK-MES-1 | 0.36 | 0.322 | 0.281 | 0.318 | 0.748 | 0.608 | 0.515 | 0.528 | 0.469 | 0.481 | 0.458 | 0.909 | 0.829 | 0.809 | 0.394 | 0.409 | 0.241 | 1.08 | 1.09 | 0.976 |
